From the supplement of paper PMC13380429
± gives the standard deviation of the averaged measurements.

Experiments:
Details in all cases: 72 h
HepG2 [1] = test: cell viability relative to DMSO; higher = less toxic
Calu-3 [2] = test: as above
Vero E6 [3] = test: as above
Caco-2 [4] = test: as above
U2OS [5] = test: as above
HepG2 [6] = test: drug sensitivity score (DSS) for viability; higher = more toxic; extreme values may be limits of the assay
Calu-3 [7] = test: as above
Vero E6 [8] = test: as above
Caco-2 [9] = test: as above
U2OS [10] = test: as above
HepG2 [11] = test: relative viability EC50 (midpoint between 100% and the lowest measured viability); higher = less toxic
Vero E6 [12] = test: as above
Caco-2 [13] = test: as above
U2OS [14] = test: as above

| SMILES | cell viability (HepG2 [1]; 1 nM) | cell viability (HepG2 [1]; 10 nM) | cell viability (HepG2 [1]; 100 nM) | cell viability (HepG2 [1]; 1000 nM) | cell viability (HepG2 [1]; 10000 nM) | cell viability (Calu-3 [2]; 1 nM) | cell viability (Calu-3 [2]; 10 nM) | cell viability (Calu-3 [2]; 100 nM) | cell viability (Calu-3 [2]; 1000 nM) | cell viability (Calu-3 [2]; 10000 nM) | cell viability (Vero E6 [3]; 1 nM) | cell viability (Vero E6 [3]; 10 nM) | cell viability (Vero E6 [3]; 100 nM) | cell viability (Vero E6 [3]; 1000 nM) | cell viability (Vero E6 [3]; 10000 nM) | cell viability (Caco-2 [4]; 1 nM) | cell viability (Caco-2 [4]; 10 nM) | cell viability (Caco-2 [4]; 100 nM) | cell viability (Caco-2 [4]; 1000 nM) | cell viability (Caco-2 [4]; 10000 nM) | cell viability (U2OS [5]; 1 nM) | cell viability (U2OS [5]; 10 nM) | cell viability (U2OS [5]; 100 nM) | cell viability (U2OS [5]; 1000 nM) | cell viability (U2OS [5]; 10000 nM) | drug sensitivity score (HepG2 [6]) | drug sensitivity score (Calu-3 [7]) | drug sensitivity score (Vero E6 [8]) | drug sensitivity score (Caco-2 [9]) | drug sensitivity score (U2OS [10]) | relative viability EC50 (HepG2 [11]) | relative viability EC50 (Vero E6 [12]) | relative viability EC50 (Caco-2 [13]) | relative viability EC50 (U2OS [14]) |
| --- | --- | --- | --- | --- | --- | --- | --- | --- | --- | --- | --- | --- | --- | --- | --- | --- | --- | --- | --- | --- | --- | --- | --- | --- | --- | --- | --- | --- | --- | --- | --- | --- | --- | --- |
| COc1ccc(S(=O)(=O)Nc2cccnc2Nc2ccc(O)cc2)cc1 [ABT-751] | 101% | 108% | 105% | 45.1% | 35.2% | 108% | 87.3% | 94% | 69.4% | 55.8% | 102% | 98.9% | 93.3% | 29.8% | 27.9% | 100% | 89.6% | 86.3% | 53.7% | 42.4% | 103% | 99.4% | 104% | 57.5% | 26.4% | 10 | 6.2 | 14.2 | 10.1 | 9.2 | 522 nM | 248 nM | 260 nM | 884 nM |
| COc1cc(-c2ncn(/C=C\C(=O)OC(C)C)n2)cc(C(F)(F)F)c1 [KPT-185] | 105% | 100% | 84.3% | 29.1% | 23.9% | 99.4% | 91.1% | 81.8% | 55.6% | 51.9% | 97.1% | 102% | 96.4% | 41.8% | 20% | 94.7% | 96.5% | 92.2% | 57% | 38.9% | 98.1% | 93.7% | 89.5% | 11.3% | 4.1% | 15.1 | 10 | 11.6 | 9 | 17.6 | 218 nM | 573 nM | 480 nM | 284 nM |
| Cc1cc(C)cc(C(=O)NOCCCCCC(=O)NO)c1 [LMK-235] | 95.1% | 93.3% | 79.4% | 34.4% | 0.3% |  |  |  |  |  | 95.3% | 102% | 96.1% | 39.8% | -0.1% | 107% | 86.9% | 96.4% | 60.3% | 0.9% | 95.9% | 91.3% | 90.4% | 49.3% | 1.9% | 15.1 |  | 12.7 | 10.4 | 11.6 | 441 nM | 777 nM | 1220 nM | 884 nM |
| CCOC(=O)c1ccc(N2NC(=O)/C(=C/c3ccc([N+](=O)[O-])o3)C2=O)cc1 [PYR-41] | 112% | 99.7% | 94.4% | 105% | 84.9% | 85.5% | 101% | 92.2% | 71.6% | 62% | 103% | 103% | 99.2% | 101% | 85.7% | 96% | 100% | 95.1% | 85% | 71.2% | 93.5% | 98.3% | 101% | 93.4% | 75.5% | 0.1 | 5.7 | 0.1 | 2.6 | 1.8 | > 10000 nM | > 10000 nM |  | > 10000 nM |
| COc1cc(/C=C/c2ccc(OC)cc2OC)cc(OC)c1 [TMS] | 98.7% | 94.7% | 96.1% | 91.5% | 46.2% | 97% | 99.6% | 92.6% | 106% | 62.8% | 93.6% | 95.5% | 94.7% | 91.3% | 35% | 86.4% | 97.6% | 81.6% | 92.4% | 55.5% | 98.8% | 107% | 94.1% | 101% | 52.5% | 4.3 | 1.4 | 5 | 4.2 | 2.4 | 1940 nM | 2080 nM |  |  |
| C/C(=N\Nc1nnc2c(n1)[nH]c1c(C)cccc12)c1ccccn1 [VLX600] | 102 ± 2.3% | 107 ± 10% | 103 ± 11% | 17.9 ± 6% | 23.6 ± 1.6% |  |  |  |  |  | 101 ± 6% | 100.5 ± 0.49% | 104 ± 2.5% | 21.6 ± 15% | 4.95 ± 1.2% | 95.5 ± 6% | 101 ± 1.6% | 98.1 ± 4.1% | 20.2 ± 5.8% | 21 ± 2.1% | 100 ± 3.2% | 99.6 ± 9.3% | 98.9% | 34.3 ± 6.7% | 27 ± 0.99% | 14.85 ± 0.071 |  | 14.6 ± 2.2 | 14.8 ± 0.35 | 12.2 ± 1.3 | 319 nM | 525 nM | 320 nM | 418 nM |
| CC#CC(=O)N1CCC[C@H]1c1nc(-c2ccc(C(=O)Nc3ccccn3)cc2)c2c(N)nccn12 [acalabrutinib] | 95.9% | 96.7% | 95% | 103% | 102% | 99.5% | 89.1% | 84.2% | 67.8% | 65.3% | 91.4% | 99.7% | 93.1% | 96.7% | 98.2% | 92.1% | 101% | 99.4% | 90.5% | 97.8% | 99.3% | 95.6% | 105% | 95.3% | 102% | 0 | 7.3 | 0 | 0 | 0 | > 10000 nM | > 10000 nM | > 10000 nM | > 10000 nM |
